Entries after “also recorded” stand apart in the source; their conditions may differ.
How the values were obtained:
Assay in all cases: Human Phospho-Kinase Array in HL60 cells
Format in all cases: cell-based
HSP60 = system: HSP60
From the text: (§1) We also measured changes in kinase activities of some selected Ser/Thr kinases using the Human Phospho-Kinase Array® kit (R&D Systems) which encompasses phosphoprotein-specific capture antibodies spotted at a certain location (in duplicates) on a nitrocellulose membrane. The signal intensities, detected by a sandwich immunoassay, are proportional to the amount of each phosphokinase in the cell lysate (Figure 8).
(§2) FIGURE 8 Phosphokinase proteome profile of KIM-161 in HL60 cell line. (A) Cells lysates were prepared after 10 h treatment with KIM-161 and applied to the membranes prespotted with the different antibodies. […] The height of each bar represents the average intensity of certain protein signals in treated cells/untreated × 100. Therefore, the dotted line represents the control percentage (100%).
(§3) The phosphorylation profile of 48 kinases was performed using the Proteome Profiler Human Phospho-Kinase Array an antibody array kit, by R&D Systems (Minneapolis, MN, USA). Total protein was extracted from the cell lysates treated with 365 nM KIM-161 for 10 h using the lysis buffer provided in the kit and quantified using the Bio-Rad DC Protein Assay kit (USA). The nitrocellulose membrane set (A&B), pre-spotted with the capture antibodies, was first blocked with 1 ml of Array buffer 1 at RT for 1 h in an 8-well multi-dish on a rocking platform shaker. Approximately 600 µg of protein concentrate (<334 µL) was diluted in the Array buffer 1 to a final volume of 2 ml. 1 ml of the protein sample was added onto the membrane set and incubated overnight at 4°C on a rocking platform shaker. Subsequently, membranes were washed with 15 ml of 1× wash buffer thrice for 5 min at RT, and the excess buffer was completely drained. The membranes A&B were then incubated with appropriate detection antibody cocktails A&B that were reconstituted using the 1× Array buffer 2/3 for 2 h at RT. After the incubation was complete, the membranes were washed with 15 ml of 1× wash buffer thrice for 5 min at RT, and the excess buffer was completely drained. Streptavidin-HRP (1:2000), diluted in 1× Array buffer 2/3, was applied onto the membranes and incubated for 30 min at RT on a rocking platform shaker. The membranes were washed thrice, and Chemi Reagent 1&2 were applied in equal volumes for detection on C-DiGit®Blot Scanner (LI-COR Odyssey Imaging Systems, Lincoln, Nebraska, USA) using the Image Studio 5.0 software.

HSP27 (S78/S82) = system: HSP27 (S78/S82)
From the text: as §1, §2, §3

GSK-3α/β (S21/S9) = system: GSK-3α/β (S21/S9)
From the text: as §1, §2, §3

C-Jun = system: C-Jun
From the text: as §1, §2, §3

Chk-2 = system: Chk-2
From the text: as §1, §2, §3

AMPKα1 = system: AMPKα1
From the text: as §1, §2, §3

STAT2 (Y689) = system: STAT2 (Y689)
From the text: as §1, §2, §3

JNK 1/2/3 = system: JNK 1/2/3
From the text: as §1, §2, §3

[1] = system: ERK1/2 (T202/Y204, T185/Y187)
From the text: as §1, §2, §3

CREB = system: CREB
From the text: as §1, §2, §3

[2] = HL60, 365 nM, 10 h, vs untreated
[3] = HSP60 spot, HL60 cells, 10 h (KIM-161 365 nM)
[4] = HL60, 365 nM, 10 h, vs untreated, listed as KIM-161
[5] = HSP27 spot, HL60 cells, 10 h (KIM-161 365 nM)
[6] = GSK-3α/β spot, HL60 cells, 10 h (KIM-161 365 nM)
[7] = C-Jun spot, HL60 cells, 10 h (KIM-161 365 nM)
[8] = Chk-2 spot, HL60 cells, 10 h (KIM-161 365 nM)
[9] = AMPKα1 spot, HL60 cells, 10 h (KIM-161 365 nM)
[10] = STAT2 spot, HL60 cells, 10 h (KIM-161 365 nM)
[11] = JNK 1/2/3 spot, HL60 cells, 10 h (KIM-161 365 nM)
[12] = ERK1/2 spot, HL60 cells, 10 h (KIM-161 365 nM)
[13] = CREB spot, HL60 cells, 10 h (KIM-161 365 nM)

COc1ccc(/C=C2\N=C(C)N(c3ccc(CC(=O)NCc4ccccc4)cc3)C2=O)cc1 [Compound 4c, (Z)-N-Benzyl-2-(4-(4-(4-methoxybenzylidene)-2-methyl-5-oxo-4,5-dihydro-1H-imidazol-1-yl)phenyl)acetamide]
reduction of HSP60 activity (HSP60; [2]): 28.5% | Normalized to HK (HSP60; [3]): 0.0227 | Normalized x10K (HSP60; [3]): 227.18 | Signal (HSP60; [3]): 90.20 | activity at 0.365 µM (HSP60; Homo sapiens, HL-60, HSP60 spot, HL60 cells, 10 h (KIM-161 365 nM), untreated = 100, read-out: % Ctrl): 71.5% | change of HSP27 phosphokinase signal (HSP27 (S78/S82); [4]): strongly suppresses; also recorded: strong downregulation | Normalized to HK (HSP27 (S78/S82); [5]): 0.00 | Normalized x10K (HSP27 (S78/S82); [5]): 0.00 | Signal (HSP27 (S78/S82); [5]): 0.00 | activity at 0.365 µM (HSP27 (S78/S82); Homo sapiens, HL-60, HSP27 spot, HL60 cells, 10 h (KIM-161 365 nM), untreated = 100, read-out: % Ctrl): 0% | Normalized to HK (GSK-3α/β (S21/S9); [6]): 0.0000 | Normalized x10K (GSK-3α/β (S21/S9); [6]): 0.00 | Signal (GSK-3α/β (S21/S9); [6]): 0.00 | change of GSK-3α/β phosphokinase signal (GSK-3α/β (S21/S9); [4]): strongly suppresses; also recorded: strong downregulation | activity at 0.365 µM (GSK-3α/β (S21/S9); Homo sapiens, HL-60, GSK-3α/β spot, HL60 cells, 10 h (KIM-161 365 nM), untreated = 100, read-out: % Ctrl): 0% | Normalized to HK (C-Jun; [7]): 0.1136 | Normalized x10K (C-Jun; [7]): 1136.44 | Signal (C-Jun; [7]): 451.20 | enhancement of c-Jun (C-Jun; [2]): 15.8% | activity at 0.365 µM (C-Jun; Homo sapiens, HL-60, C-Jun spot, HL60 cells, 10 h (KIM-161 365 nM), untreated = 100, read-out: % Ctrl): 116% | Normalized to HK (Chk-2; [8]): 0.00913 | Normalized x10K (Chk-2; [8]): 91.25 | Signal (Chk-2; [8]): 32.06 | change of Chk-2 activity (Chk-2; [2]): upregulated | Normalized to HK (AMPKα1; [9]): 0.0019 | Normalized x10K (AMPKα1; [9]): 18.91 | Signal (AMPKα1; [9]): 6.64 | change of AMPKα1 phosphorylation (AMPKα1; [4]): downregulated; also recorded: to a quarter of its level compared to the control | activity at 0.365 µM (AMPKα1; Homo sapiens, HL-60, AMPKα1 spot, HL60 cells, 10 h (KIM-161 365 nM), untreated = 100, read-out: % Ctrl): 27.9% | change of STAT2 phosphokinase signal (STAT2 (Y689); [4]): strongly suppresses; also recorded: strong downregulation | activity at 0.365 µM (STAT2 (Y689); Homo sapiens, HL-60, STAT2 spot, HL60 cells, 10 h (KIM-161 365 nM), untreated = 100, read-out: % Ctrl): 0% | Normalized to HK (STAT2 (Y689); [10]): 0.00 | Normalized x10K (STAT2 (Y689); [10]): 0.00 | Signal (STAT2 (Y689); [10]): 0.00 | reduction of JNK1/2/3 activity (JNK 1/2/3; [2]): 26.0% | activity at 0.365 µM (JNK 1/2/3; Homo sapiens, HL-60, JNK 1/2/3 spot, HL60 cells, 10 h (KIM-161 365 nM), untreated = 100, read-out: % Ctrl): 74% | Normalized to HK (JNK 1/2/3; [11]): 0.0031 | Normalized x10K (JNK 1/2/3; [11]): 31.34 | Signal (JNK 1/2/3; [11]): 11.01 | Normalized to HK [1, 12]: 0.0000 | Normalized x10K [1, 12]: 0.00 | Signal [1, 12]: 0.00 | change of ERK1/2 phosphokinase signal [1, 4]: strongly suppresses; also recorded: strong downregulation | activity at 0.365 µM ([1]; Homo sapiens, HL-60, ERK1/2 spot, HL60 cells, 10 h (KIM-161 365 nM), untreated = 100, read-out: % Ctrl): 0% | Normalized to HK (CREB; [13]): 0.0405 | Normalized x10K (CREB; [13]): 405.44 | Signal (CREB; [13]): 142.45 | reduction of CREB activity (CREB; [2]): 36.7% | activity at 0.365 µM (CREB; Homo sapiens, HL-60, CREB spot, HL60 cells, 10 h (KIM-161 365 nM), untreated = 100, read-out: % Ctrl): 63.3%
